Test results from BindingDB's records for doi:10.1021/jm00350a009 (1982).

Assay: Compound was tested for inhibition of [3H]dihydroalprenolol radioligand binding to Beta-1 adrenergic receptor in dog heart.

`CC(C)(C)NC[C@@H](O)CON=C1c2ccccc2-c2ccccc21` and `CC(C)(C)NC[C@H](O)CON=C1c2ccccc2-c2ccccc21` are within 1.5-fold of each other in IC50: 43 nM for the first, 29 nM for the second.

First: Cc1ccc(OCC(O)CNC(C)C)c2c1CCC2 (centres undefined) [1-Isopropylamino-3-(7-methyl-indan-4-yloxy)-propan-2-ol]
Second: CC(C)(C)NCC(O)CON=C1c2ccccc2-c2ccccc21 (centres undefined) [Fluoren-9-one O-(3-tert-butylamino-2-hydroxy-propyl)-oxime]
The IC50 of the first is 4.9-fold higher: 186 nM for the first, 38 nM for the second. The second is the more potent here.
